Results published in patent publication US11866707B2, “Use of non-coding RNA SNHG17 as biomarker and therapeutic target” (ZHEJIANG CANCER HOSPITAL, priority 2022, dated 2024).

Tests used:
[1] = tested on: SNHG17-overexpressing breast cancer cells (MCF-7); test: Plate colony formation experiment, fulvestrant resistance of SNHG17-overexpressing cells; assay type: cell-based, human; conditions: medium containing 6 μmol/L fulvestrant, 15 days; SNHG17-overexpressing cells vs SNHG17-overexpressing control cells (FIG. 4)
Description: The above-mentioned SNHG17-overexpressing control breast cancer cells and SNHG17-overexpressing breast cancer cells were selected for experiments to detect the drug resistance to fulvestrant. 1000 well-grown cells were inoculated into a culture plate (diameter 60 mm) containing DMEM complete medium, then gently shook the culture plate to disperse the cells evenly. The cells were incubated at 37° C., 5V/V % CO2 for 15 days, and replaced complete medium every 3 days. When colonies were visible to the naked eye in the culture dish, the culture was terminated and the culture medium was discarded. After that, the cells were carefully washed twice by PBS and dried. Methanol was used for anchor cells for 15 min, then the methanol was discarded and cells were air-dried. Cells were stained with Giemsa staining solution (purchased from Merck) for 10 min, then the staining solution was slowly washed away with running water, and cells were air-dried. Experiments were divided into blank group (SNHG17-overexpressing control breast cancer stable cells, medium containing 6 μmol/L DMSO), control group (SNHG17-overexpressing control breast cancer cells, medium containing 6 μmol/L fulvestrant), overexpression group (SNHG17-overexpressing breast cancer cells, medium containing 6 μmol/L fulvestrant) 3 groups. […]

[2] = tested on: SNHG17-overexpressing breast cancer cells (MCF-7); test: Sensitivity detection of breast cancer cells to fulvestrant (MTT); assay type: cell-based, human; conditions: fulvestrant 2, 4, 8, 16 μmol/L, 48 h, SNHG17-overexpressing cells vs control cells (FIG. 5)
Description: MCF-7 and SNHG17 overexpressing breast cancer cells in the logarithmic growth phase were inoculated into 96-well plates (with DMEM complete medium) at a density of 3000 cells per well. Then cells were cultured in a 37° C. 5V/V % CO2 incubator until the cells adhered to the plates. Then added fulvestrant respectively, and the final concentration was 0 (cell control group), 2, 4, 8, and 16 μmol/L. Each concentration was set in 4 duplicate wells, and a blank control group was set at the same time. After being cultured for 48 hours in a 37° C., 5V/V % CO2 incubator, 20 μL of MTT (5 g/L) solution was added to each well. After culturing for 4 hours, discarded the medium and added triple solution (10 g SDS, 5 mL of isobutanol, 0.1 mL of 10M hydrochloric acid, and ddH2O to make a 100 mL solution) and incubated overnight. Then the absorbance (A570 nm) value was measured at 570 nm with an enzyme calibration. The triple solution was used as a blank control group to detect the cells' survival rate. Growth inhibition rate (%)=(control group A570 nm—experimental group A570 nm)/cell control group A570 nm×100%. The growth inhibition rate of fulvestrant on breast cancer cells is shown in FIG. 5, wherein C stands for SNHG17-overexpressing control breast cancer cells, D stands for SNHG17-overexpressing breast cancer cells, *P<0.05, **P<0.01 indicates the data had statistical significance.

Structure (SMILES): C[C@]12CC[C@@H]3c4ccc(O)cc4C[C@@H](CCCCCCCCC[S+]([O-])CCCC(F)(F)C(F)(F)F)[C@H]3[C@@H]1CC[C@@H]2O (some centres unmarked) [fulvestrant]
- number of colonies formed [1]: greater than that of SNHG17-overexpressing control breast cancer cells
- growth inhibition rate of fulvestrant on breast cancer cells [2]: significantly greater than that in SNHG17-overexpressing control breast cancer cells
